Assay results from patent US11377418B2, “Compounds and methods for treating influenza” (Macau University of Science and Technology, priority 2020, dated 2022).
“Also recorded” adds a separate entry of the source. Read-outs that look alike come from different tables or passages of the source.

Key:
[1] = system: influenza A H1N1 (A/PR/8/34 virus); assay: cytopathic effect (CPE) inhibition assay in MDCK cells; assay type: cell-based
NF-κB activation = assay: NF-κB-driven luciferase reporter assay in TNF-α-induced HEK293 cells; assay type: cell-based, Human; details: luciferase activity, 20 ng/mL TNF-α, compound 100, 50, 25 or 12.5 μM, 24 h, FIGS. 1 to 4
influenza virus = assay: NF-κB signalling inhibition, effect on influenza virus titers (in vitro and in vivo)

SMILES	IC50 ([1]; Influenza A virus, MDCK, 48 h) [µM]	further results
CC(=O)OC[C@H](Cc1ccccc1)NC(=O)[C@H](Cc1ccccc1)NC(=O)c1ccccc1 [Compound 1, (S)-2-((S)-2-benzamido-3-phenylpropanamido)-3-phenylpropyl acetate, reference compound]	74.3	
CC(=O)OC[C@H](Cc1ccccc1)NC(=O)[C@H](Cc1ccccc1)NC(=O)c1ccc(F)cc1 [Compound 3, (S)-2-((S)-2-(4-fluorobenzamido)-3-phenylpropanamido)-3-phenylpropyl acetate]	42.4	
CC(=O)OC[C@H](Cc1ccc(F)cc1)NC(=O)[C@H](Cc1ccccc1)NC(=O)c1ccccc1 [Compound 4, (S)-2-((S)-2-benzamido-3-phenylpropanamido)-3-(4-fluorophenyl)propyl acetate]	29.6	
CC(=O)OC[C@H](Cc1ccccc1)NC(=O)[C@H](Cc1ccc(F)cc1)NC(=O)c1ccc(F)cc1 [Compound 5, (S)-2-((S)-2-(4-fluorobenzamido)-3-(4-fluorophenyl)propanamido)-3-phenylpropyl acetate]	37.9	
CC(=O)OC[C@H](Cc1ccc(F)cc1)NC(=O)[C@H](Cc1ccc(F)cc1)NC(=O)c1ccccc1 [Compound 6, (S)-2-((S)-2-benzamido-3-(4-fluorophenyl)propanamido)-3-(4-fluorophenyl)propyl acetate]	19.2	inhibition towards NF-κB activation (in words) (NF-κB activation): strongest inhibition effect; also recorded: strong inhibitory effect
CC(=O)OC[C@H](Cc1ccc(F)cc1)NC(=O)[C@H](Cc1ccccc1)NC(=O)c1ccc(F)cc1 [Compound 7, (S)-2-((S)-2-(4-fluorobenzamido)-3-phenylpropanamido)-3-(4-fluorophenyl)propyl acetate]	< 14.3	IC50 [1]: 13.5 µM
O=C(N[C@@H](Cc1ccccc1)C(=O)N[C@H](CO)Cc1ccccc1)c1ccccc1 [Compound 9, N—((S)-1-(((S)-1-hydroxy-3-phenylpropan-2-yl)amino)-1-oxo-3-phenylpropan-2-yl)benzamide, reference compound]	34	
O=C(N[C@@H](Cc1ccc(F)cc1)C(=O)N[C@H](CO)Cc1ccccc1)c1ccccc1 [Compound 10, N—((S)-3-(4-fluorophenyl)-1-(((S)-1-hydroxy-3-phenylpropan-2-yl)amino)-1-oxopropan-2-yl)benzamide]	< 14.3	IC50 [1]: 14.3 µM; anti-influenza virus effect (in words) ([1]; CPE inhibition, MDCK cells, A/PR/8/34 (H1N1)): potent inhibitory effect; inhibition towards NF-κB activation (in words) (NF-κB activation): potent inhibitory effect; also recorded: strong inhibitory effect; also recorded: excellent inhibitory effects
O=C(N[C@@H](Cc1ccccc1)C(=O)N[C@H](CO)Cc1ccccc1)c1ccc(F)cc1 [Compound 11, 4-fluoro-N—((S)-1-(((S)-1-hydroxy-3-phenylpropan-2-yl)amino)-1-oxo-3-phenylpropan-2-yl)benzamide]	47	
CC(C)(C)c1ccc(S(=O)(=O)/C=C/C#N)cc1 [Compound 11-7085]		influenza virus titers (in words) (influenza virus): dramatic reduction of influenza virus titers
O=C(N[C@@H](Cc1ccccc1)C(=O)N[C@H](CO)Cc1ccc(F)cc1)c1ccccc1 [Compound 12, N—((S)-1-(((S)-1-(4-fluorophenyl)-3-hydroxypropan-2-yl)amino)-1-oxo-3-phenylpropan-2-yl)benzamide]	17.4	
O=C(N[C@@H](Cc1ccc(F)cc1)C(=O)N[C@H](CO)Cc1ccccc1)c1ccc(F)cc1 [Compound 13]	< 14.3	IC50 [1]: 10.5 µM
O=C(N[C@@H](Cc1ccc(F)cc1)C(=O)N[C@H](CO)Cc1ccc(F)cc1)c1ccccc1 [Compound 14, N—((S)-3-(4-fluorophenyl)-1-(((S)-1-(4-fluorophenyl)-3-hydroxypropan-2-yl)amino)-1-oxopropan-2-yl)benzamide]	19.7	inhibition towards NF-κB activation (in words) (NF-κB activation): strongest inhibition effect; also recorded: strong inhibitory effect
O=C(N[C@@H](Cc1ccccc1)C(=O)N[C@H](CO)Cc1ccc(F)cc1)c1ccc(F)cc1 [Compound 15, 4-fluoro-N—((S)-1-(((S)-1-(4-fluorophenyl)-3-hydroxypropan-2-yl)amino)-1-oxo-3-phenylpropan-2-yl)benzamide]	38.7	
CC(=O)Oc1ccccc1C(=O)O [acetylsalicyclic acid (ASA), acetylsalicyclic acid]		influenza virus titers (in words) (influenza virus): dramatic reduction of influenza virus titers
